Data on 8 molecules can be found in ChEMBL document CHEMBL5291721, “A preclinical secondary pharmacology resource illuminates target-adverse drug reaction associations of marketed drugs” (Nat Commun, 2023).

Targets include D(1A) dopamine receptor (Homo sapiens, UniProt P21728); Histamine H3 receptor (Homo sapiens, UniProt Q9Y5N1); Mu-type opioid receptor (Homo sapiens, UniProt P35372).
The target in another assay is Acetylcholinesterase (Homo sapiens, UniProt P22303). It is filed as functional.
In assay [1] the target is T1, Alpha-1A adrenergic receptor (Homo sapiens, UniProt P35348).
T1 sequence (P35348 whole entry): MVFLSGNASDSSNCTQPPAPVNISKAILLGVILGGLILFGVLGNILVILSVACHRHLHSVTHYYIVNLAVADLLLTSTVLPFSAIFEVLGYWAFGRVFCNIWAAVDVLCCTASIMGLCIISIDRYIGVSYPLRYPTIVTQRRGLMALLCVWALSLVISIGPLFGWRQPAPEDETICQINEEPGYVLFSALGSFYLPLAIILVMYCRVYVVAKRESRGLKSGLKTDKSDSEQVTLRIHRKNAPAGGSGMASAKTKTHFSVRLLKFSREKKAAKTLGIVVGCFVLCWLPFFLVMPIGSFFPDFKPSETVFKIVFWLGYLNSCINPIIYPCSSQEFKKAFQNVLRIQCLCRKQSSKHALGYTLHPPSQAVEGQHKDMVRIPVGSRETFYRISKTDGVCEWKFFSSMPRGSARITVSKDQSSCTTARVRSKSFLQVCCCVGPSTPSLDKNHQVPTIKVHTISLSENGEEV
Format: functional, cell-based.

The target in assay [2] is T2, Alpha-2A adrenergic receptor (Homo sapiens, UniProt P08913).
T2 sequence (P08913 whole entry): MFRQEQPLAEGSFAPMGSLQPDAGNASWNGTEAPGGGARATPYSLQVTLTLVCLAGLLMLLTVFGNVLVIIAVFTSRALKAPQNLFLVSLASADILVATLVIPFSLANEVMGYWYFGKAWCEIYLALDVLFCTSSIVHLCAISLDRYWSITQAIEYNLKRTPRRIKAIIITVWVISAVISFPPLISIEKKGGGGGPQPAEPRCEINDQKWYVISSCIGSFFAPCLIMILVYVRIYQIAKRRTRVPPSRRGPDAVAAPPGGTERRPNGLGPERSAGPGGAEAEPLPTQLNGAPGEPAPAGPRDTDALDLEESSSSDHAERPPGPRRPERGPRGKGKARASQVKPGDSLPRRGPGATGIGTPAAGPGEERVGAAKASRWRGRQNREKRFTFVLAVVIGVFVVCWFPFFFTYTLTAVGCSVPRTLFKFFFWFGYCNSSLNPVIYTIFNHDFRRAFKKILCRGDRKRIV

The target in assay [3] is T3, 5-hydroxytryptamine receptor 1A (Homo sapiens, UniProt P08908).
T3 sequence (P08908 whole entry): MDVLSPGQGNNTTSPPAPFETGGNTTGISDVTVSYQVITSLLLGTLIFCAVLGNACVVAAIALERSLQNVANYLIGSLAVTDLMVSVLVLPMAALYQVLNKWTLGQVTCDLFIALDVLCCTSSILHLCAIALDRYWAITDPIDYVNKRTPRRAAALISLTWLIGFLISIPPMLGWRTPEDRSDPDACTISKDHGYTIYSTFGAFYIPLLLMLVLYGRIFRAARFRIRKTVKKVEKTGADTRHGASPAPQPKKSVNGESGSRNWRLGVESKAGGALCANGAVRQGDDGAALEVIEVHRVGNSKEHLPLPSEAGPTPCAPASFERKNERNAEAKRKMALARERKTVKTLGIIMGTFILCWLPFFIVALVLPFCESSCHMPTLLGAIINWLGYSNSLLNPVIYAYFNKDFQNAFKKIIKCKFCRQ

For assay [4], the target named is 5-hydroxytryptamine receptor 2B (Homo sapiens, UniProt P41595). Format: functional, cell-based.
The target of assay [5] is Voltage-gated inwardly rectifying potassium channel KCNH2 (Homo sapiens, UniProt Q12809). It is filed as functional.
The target in assay [6] is T4, Amine oxidase [flavin-containing] A (Homo sapiens, UniProt P21397).
T4 sequence (P21397 whole entry): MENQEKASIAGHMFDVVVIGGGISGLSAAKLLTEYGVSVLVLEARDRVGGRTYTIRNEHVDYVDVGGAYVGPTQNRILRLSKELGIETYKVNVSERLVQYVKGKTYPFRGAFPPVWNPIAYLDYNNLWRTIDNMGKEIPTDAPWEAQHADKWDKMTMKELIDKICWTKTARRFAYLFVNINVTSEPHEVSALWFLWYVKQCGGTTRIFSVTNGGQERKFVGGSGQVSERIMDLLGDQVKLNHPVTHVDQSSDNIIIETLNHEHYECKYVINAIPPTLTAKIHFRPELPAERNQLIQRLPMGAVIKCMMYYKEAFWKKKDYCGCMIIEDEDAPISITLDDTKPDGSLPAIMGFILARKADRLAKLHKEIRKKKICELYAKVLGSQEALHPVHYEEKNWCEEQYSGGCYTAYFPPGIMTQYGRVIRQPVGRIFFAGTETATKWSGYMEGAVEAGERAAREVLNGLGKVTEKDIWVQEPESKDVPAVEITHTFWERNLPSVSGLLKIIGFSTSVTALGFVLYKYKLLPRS
Format: functional.

Assay [7] deals with cGMP-inhibited 3',5'-cyclic phosphodiesterase 3A (Homo sapiens, UniProt Q14432). It is filed as functional.
The target of assay [8] is 3',5'-cyclic-AMP phosphodiesterase 4A (Homo sapiens, UniProt P27815). Format: functional.
Assay [9] deals with T5, Prostaglandin G/H synthase 1 (Homo sapiens, UniProt P23219). Format: functional.
For assay [10], the target named is T5, Prostaglandin G/H synthase 1. Format: functional. The source holds these as a separate data set.
Assay [11] has as its target Sodium-dependent dopamine transporter (Homo sapiens, UniProt Q01959).
The next assay concerns the target T6, Thromboxane A2 receptor (Homo sapiens, UniProt P21731).
T6 sequence (P21731 whole entry): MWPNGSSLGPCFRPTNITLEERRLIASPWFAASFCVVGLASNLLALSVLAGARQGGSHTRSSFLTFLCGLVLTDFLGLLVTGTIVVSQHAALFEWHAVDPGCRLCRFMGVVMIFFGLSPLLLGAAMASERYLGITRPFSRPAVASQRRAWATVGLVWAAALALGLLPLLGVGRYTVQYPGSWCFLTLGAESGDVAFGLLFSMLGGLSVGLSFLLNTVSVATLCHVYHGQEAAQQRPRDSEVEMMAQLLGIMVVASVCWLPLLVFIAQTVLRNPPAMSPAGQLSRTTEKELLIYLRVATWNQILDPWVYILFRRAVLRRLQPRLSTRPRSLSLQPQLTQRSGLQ
Format: functional, cell-based.
Also: assay procedure not described here.

D(1A) dopamine receptor, sequence (P21728 whole entry): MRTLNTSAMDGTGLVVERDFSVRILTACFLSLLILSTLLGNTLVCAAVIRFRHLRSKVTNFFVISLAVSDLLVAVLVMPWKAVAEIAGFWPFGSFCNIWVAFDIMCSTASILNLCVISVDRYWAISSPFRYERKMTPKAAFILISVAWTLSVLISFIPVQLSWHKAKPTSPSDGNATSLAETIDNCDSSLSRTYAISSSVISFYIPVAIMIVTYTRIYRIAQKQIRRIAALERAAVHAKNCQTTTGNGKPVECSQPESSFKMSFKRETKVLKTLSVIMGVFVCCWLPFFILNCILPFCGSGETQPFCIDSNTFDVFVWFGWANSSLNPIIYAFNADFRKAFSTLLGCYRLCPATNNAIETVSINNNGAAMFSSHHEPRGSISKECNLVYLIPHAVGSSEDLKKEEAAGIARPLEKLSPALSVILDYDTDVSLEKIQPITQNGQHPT
Voltage-gated inwardly rectifying potassium channel KCNH2, sequence (Q12809 whole entry): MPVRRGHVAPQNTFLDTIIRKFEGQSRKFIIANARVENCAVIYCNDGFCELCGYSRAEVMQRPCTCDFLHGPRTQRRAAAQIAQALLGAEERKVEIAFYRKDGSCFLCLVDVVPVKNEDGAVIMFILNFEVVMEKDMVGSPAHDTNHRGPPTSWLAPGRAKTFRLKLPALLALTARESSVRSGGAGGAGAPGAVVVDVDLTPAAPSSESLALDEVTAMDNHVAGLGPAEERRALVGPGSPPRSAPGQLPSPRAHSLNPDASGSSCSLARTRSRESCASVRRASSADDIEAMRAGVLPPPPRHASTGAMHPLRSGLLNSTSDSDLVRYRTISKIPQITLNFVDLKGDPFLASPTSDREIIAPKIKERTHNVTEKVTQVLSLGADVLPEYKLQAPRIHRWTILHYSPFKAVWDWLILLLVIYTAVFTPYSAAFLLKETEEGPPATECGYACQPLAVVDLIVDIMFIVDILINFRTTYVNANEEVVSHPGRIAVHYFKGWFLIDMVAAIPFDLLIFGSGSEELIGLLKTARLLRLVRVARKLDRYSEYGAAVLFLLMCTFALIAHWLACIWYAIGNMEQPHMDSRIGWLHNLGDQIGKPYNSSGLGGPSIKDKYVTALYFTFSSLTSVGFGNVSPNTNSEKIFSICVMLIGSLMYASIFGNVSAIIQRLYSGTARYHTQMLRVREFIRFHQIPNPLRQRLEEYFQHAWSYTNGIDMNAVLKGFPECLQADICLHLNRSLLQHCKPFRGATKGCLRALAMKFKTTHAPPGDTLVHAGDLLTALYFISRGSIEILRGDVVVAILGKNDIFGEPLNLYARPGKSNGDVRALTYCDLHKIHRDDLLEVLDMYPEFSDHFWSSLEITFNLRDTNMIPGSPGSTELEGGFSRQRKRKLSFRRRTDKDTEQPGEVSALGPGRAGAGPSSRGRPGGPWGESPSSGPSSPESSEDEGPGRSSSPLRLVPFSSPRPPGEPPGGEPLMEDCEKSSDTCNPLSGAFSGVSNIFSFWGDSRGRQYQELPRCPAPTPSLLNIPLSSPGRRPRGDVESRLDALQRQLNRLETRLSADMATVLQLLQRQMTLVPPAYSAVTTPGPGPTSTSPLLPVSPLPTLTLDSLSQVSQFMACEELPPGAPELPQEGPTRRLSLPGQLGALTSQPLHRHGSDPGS
Sodium-dependent dopamine transporter, sequence (Q01959 whole entry): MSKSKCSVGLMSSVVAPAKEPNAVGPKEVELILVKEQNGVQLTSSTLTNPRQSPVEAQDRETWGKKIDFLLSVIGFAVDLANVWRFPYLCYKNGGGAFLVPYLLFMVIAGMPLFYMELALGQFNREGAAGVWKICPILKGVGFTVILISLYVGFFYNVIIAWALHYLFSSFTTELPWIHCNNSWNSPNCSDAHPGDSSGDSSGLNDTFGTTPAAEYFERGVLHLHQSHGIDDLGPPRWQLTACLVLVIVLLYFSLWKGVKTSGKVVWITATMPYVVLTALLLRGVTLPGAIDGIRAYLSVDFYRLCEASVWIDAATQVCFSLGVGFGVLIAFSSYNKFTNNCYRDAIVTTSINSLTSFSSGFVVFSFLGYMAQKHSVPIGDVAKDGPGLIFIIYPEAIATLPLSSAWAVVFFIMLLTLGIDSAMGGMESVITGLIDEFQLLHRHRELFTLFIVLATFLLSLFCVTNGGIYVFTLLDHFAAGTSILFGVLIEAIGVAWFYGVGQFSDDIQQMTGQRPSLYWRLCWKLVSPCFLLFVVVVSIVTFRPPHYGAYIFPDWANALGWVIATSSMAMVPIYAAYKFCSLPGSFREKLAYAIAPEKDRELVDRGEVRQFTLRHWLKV
5-hydroxytryptamine receptor 2B, sequence (P41595 whole entry): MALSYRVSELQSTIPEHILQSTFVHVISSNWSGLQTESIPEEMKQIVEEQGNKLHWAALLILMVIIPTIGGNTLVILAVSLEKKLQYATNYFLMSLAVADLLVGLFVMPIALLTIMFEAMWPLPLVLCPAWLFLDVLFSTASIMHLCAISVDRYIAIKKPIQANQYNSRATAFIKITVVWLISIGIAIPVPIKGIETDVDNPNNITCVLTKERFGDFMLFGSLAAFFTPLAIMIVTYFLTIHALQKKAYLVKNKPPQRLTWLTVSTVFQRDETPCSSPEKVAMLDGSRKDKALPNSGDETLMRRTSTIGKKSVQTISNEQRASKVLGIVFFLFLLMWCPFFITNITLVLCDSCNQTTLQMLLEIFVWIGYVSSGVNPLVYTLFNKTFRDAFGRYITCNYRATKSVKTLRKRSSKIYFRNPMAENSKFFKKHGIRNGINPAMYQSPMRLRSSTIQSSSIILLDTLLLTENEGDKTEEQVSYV
Mu-type opioid receptor, sequence (P35372 whole entry): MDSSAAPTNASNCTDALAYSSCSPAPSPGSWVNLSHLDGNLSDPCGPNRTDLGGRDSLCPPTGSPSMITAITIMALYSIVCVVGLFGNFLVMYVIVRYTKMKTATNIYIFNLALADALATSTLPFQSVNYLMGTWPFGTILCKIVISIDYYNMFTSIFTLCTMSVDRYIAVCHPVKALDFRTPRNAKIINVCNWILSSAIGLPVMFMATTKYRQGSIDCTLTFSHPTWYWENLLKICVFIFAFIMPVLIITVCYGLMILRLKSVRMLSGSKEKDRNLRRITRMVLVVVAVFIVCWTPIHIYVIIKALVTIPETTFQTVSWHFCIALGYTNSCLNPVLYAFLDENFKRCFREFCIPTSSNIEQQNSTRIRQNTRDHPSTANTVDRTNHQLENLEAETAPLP
cGMP-inhibited 3',5'-cyclic phosphodiesterase 3A, sequence (Q14432 whole entry): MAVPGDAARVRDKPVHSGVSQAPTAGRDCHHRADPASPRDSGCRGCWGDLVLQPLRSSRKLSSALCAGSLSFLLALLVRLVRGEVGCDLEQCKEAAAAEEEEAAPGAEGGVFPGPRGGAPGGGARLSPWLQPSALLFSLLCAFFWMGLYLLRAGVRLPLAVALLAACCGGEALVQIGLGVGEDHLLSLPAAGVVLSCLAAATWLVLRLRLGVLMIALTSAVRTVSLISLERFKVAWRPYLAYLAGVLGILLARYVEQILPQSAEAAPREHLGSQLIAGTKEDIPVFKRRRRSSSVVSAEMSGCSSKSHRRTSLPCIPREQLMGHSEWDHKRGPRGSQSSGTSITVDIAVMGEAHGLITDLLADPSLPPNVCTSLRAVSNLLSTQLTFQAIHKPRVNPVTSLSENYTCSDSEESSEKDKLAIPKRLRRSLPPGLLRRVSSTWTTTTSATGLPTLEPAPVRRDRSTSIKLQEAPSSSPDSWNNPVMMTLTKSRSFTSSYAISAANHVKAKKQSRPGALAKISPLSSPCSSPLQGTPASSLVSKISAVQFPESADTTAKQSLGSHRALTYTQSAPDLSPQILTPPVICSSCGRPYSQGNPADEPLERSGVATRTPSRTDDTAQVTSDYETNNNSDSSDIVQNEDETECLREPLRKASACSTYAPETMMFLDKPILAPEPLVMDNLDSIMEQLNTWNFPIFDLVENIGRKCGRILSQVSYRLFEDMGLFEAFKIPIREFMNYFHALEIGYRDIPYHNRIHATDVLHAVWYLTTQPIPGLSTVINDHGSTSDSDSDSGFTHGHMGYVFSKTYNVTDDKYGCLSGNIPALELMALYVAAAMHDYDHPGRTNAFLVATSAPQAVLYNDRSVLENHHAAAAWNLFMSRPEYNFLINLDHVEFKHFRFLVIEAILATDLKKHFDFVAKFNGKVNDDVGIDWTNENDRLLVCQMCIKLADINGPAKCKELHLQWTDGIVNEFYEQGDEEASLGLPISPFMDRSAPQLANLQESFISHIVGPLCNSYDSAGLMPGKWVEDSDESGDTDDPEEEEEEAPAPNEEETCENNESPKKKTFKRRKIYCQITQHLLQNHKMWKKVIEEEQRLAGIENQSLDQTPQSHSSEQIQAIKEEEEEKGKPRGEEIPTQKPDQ
Histamine H3 receptor, sequence (Q9Y5N1 whole entry): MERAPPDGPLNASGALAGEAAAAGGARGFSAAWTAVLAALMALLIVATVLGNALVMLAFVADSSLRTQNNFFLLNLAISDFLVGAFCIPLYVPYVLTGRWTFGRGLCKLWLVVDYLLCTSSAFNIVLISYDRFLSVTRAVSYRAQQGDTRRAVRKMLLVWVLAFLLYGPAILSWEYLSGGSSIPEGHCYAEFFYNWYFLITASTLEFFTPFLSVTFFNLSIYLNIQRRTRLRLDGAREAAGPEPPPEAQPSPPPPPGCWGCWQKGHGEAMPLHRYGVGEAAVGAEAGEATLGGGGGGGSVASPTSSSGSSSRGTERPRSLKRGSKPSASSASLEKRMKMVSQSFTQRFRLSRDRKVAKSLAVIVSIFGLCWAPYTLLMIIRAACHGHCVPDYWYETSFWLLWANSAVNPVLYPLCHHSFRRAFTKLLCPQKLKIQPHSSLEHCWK

On to `CC(C(=O)O)c1cccc(Oc2ccccc2)c1` (stereo not drawn) [FENOPROFEN], for which the AC50 (at Acetylcholinesterase; in assay [1]; in assay [2]; on D(1A) dopamine receptor; on Histamine H3 receptor; in assay [3]) was > 30 µM throughout. The half-maximal activity concentration (AC50) (in assay [4]; in assay [5]; in [6]; at Mu-type opioid receptor; in assay [7]; in assay [8]) was > 30 µM in each case. In addition, the AC50 (commonly the concentration giving half of the maximal activity seen) in assay [9] is 1.52 µM; in assay [10], 13.5 µM; in assay [11] it was > 30 µM; on Thromboxane A2 receptor, > 30 µM.
Regarding `CC1(C)O[C@@H]2C[C@H]3[C@@H]4C[C@H](F)C5=CC(=O)C=C[C@]5(C)[C@@]4(F)[C@@H](O)C[C@]3(C)[C@]2(C(=O)CO)O1` [FLUOCINOLONE ACETONIDE], the AC50 (at Acetylcholinesterase; in assay [1]; in assay [2]; on D(1A) dopamine receptor; on Histamine H3 receptor; in assay [3]) was > 30 µM throughout. In addition, the AC50 (in [4]; in assay [5]; in assay [6]; at Mu-type opioid receptor; in assay [7]; in assay [8]) was > 30 µM throughout. Moreover, the AC50 (in assay [9]; in assay [10]; in [11]; on Thromboxane A2 receptor) was > 30 µM in each case.
Turning to `O=C(O)P(=O)(O)O` [FOSCARNET], the AC50 (on Acetylcholinesterase; in assay [1]; in [2]; on D(1A) dopamine receptor; at Histamine H3 receptor; in assay [3]) was > 30 µM throughout. The AC50 (in [4]; in assay [5]; in assay [6]; on Mu-type opioid receptor; in [7]; in [8]) was > 30 µM in each case. The AC50 (in [9]; in assay [10]; in assay [11]; at Thromboxane A2 receptor) was > 30 µM each time.
Consider `Cc1ccc(C)c(OCCCC(C)(C)C(=O)O)c1` [GEMFIBROZIL], for which the AC50 (on Acetylcholinesterase; in assay [1]; in assay [2]; on D(1A) dopamine receptor; at Histamine H3 receptor; in [3]) was > 30 µM throughout. Besides, the AC50 (in assay [4]; in assay [5]; in [6]; on Mu-type opioid receptor; in assay [7]; in assay [8]) was > 30 µM throughout. Further, the AC50 (in [9]; in [10]; in [11]; at Thromboxane A2 receptor) was > 30 µM throughout.
As to `COc1ccccc1OC1(C)OC(=O)c2ccccc2O1` (stereo not drawn) [GUAIMESAL], the half-maximal activity concentration (AC50) (on Acetylcholinesterase; in assay [1]; in [2]; on D(1A) dopamine receptor; on Histamine H3 receptor; in [3]) was > 30 µM in each case. Also, the AC50 (in assay [4]; in assay [5]; in assay [6]; at Mu-type opioid receptor; in [7]; in [8]) was > 30 µM in each case. In addition, the AC50 (in assay [9]; in assay [10]; in assay [11]; on Thromboxane A2 receptor) was > 30 µM throughout.
Turning to `CCCCC(CC)CN1CN(CC(CC)CCCC)CC(C)(N)C1` (stereo not drawn) [HEXETIDINE], the AC50 on Acetylcholinesterase was > 30 µM; in [1], > 30 µM; in assay [2] it was 14.4 µM; on D(1A) dopamine receptor it was > 30 µM; at Histamine H3 receptor, > 10 µM; in assay [3] it was 3.44 µM. The AC50 in [4] was > 30 µM; in assay [5], 0.75 µM; in [6], > 30 µM; on Mu-type opioid receptor, 4.86 µM; in assay [7] it was > 30 µM; in assay [8], > 30 µM. Moreover, the AC50 is > 30 µM in assay [9], > 30 µM in assay [10], 4.6 µM in assay [11] and > 30 µM at Thromboxane A2 receptor.
`Cc1cc(=O)oc2cc(O)ccc12` [HYMECROMONE]: the AC50 (on Acetylcholinesterase; in assay [1]; in assay [2]; at D(1A) dopamine receptor; at Histamine H3 receptor; in assay [3]) was > 30 µM in each case. Also, the AC50 (in assay [4]; in assay [5]; in assay [6]; on Mu-type opioid receptor; in [7]; in [8]) was > 30 µM each time. Also, the AC50 (in assay [9]; in assay [10]; in assay [11]; at Thromboxane A2 receptor) was > 30 µM in each case.
Consider `COc1cc(C(C)=O)ccc1OCCCN1CCC(c2noc3cc(F)ccc23)CC1` [ILOPERIDONE], for which the AC50 at Acetylcholinesterase is 15.9 µM; in assay [1], > 10 µM; in assay [2] it was 0.06 µM; on D(1A) dopamine receptor, 0.01 µM; at Histamine H3 receptor it was > 30 µM; in assay [3], 0.11 µM. In addition, the AC50 in assay [4] was > 30 µM; in assay [5], 0.15 µM; in assay [6], > 30 µM; at Mu-type opioid receptor it was 4.11 µM; in assay [7], > 30 µM; in assay [8], > 30 µM. Besides, the AC50 in assay [9] was > 30 µM; in assay [10], > 30 µM; in [11], 5.94 µM; on Thromboxane A2 receptor it was > 10 µM.
